Measurements from patent US20130324489A1, “NEW ANTIFUNGAL COMPOSITIONS” (DSM IP ASSETS B.V., priority 2011, published 2013).
“And” between values parts separate entries of the source, which are not always exact repeats. Identical values can stand only once.

Columns and labels:
Botrytis cinerea [1] = assay: Treatment of wounded strawberries inoculated with Botrytis cinerea (dip, mould growth); assay type: in vivo; conditions: 20° C.
Description: Ten fresh, organic strawberries were used per treatment. Each strawberry was wounded with a 0.5 mm long cut and each wound was inoculated with 10 μl of a Botrytis cinerea suspension containing 1×10^5 of spores/ml. […] The antifungal composition also comprised 3.1% (w/w) beeswax, 0.76% (w/w) glycerol, 0.66% (w/w) polyoxyethylene sorbitan monostearate (Tween 60), 0.03% (w/w) methylhydroxyethyl-cellulose (MHEC), 0.02% (w/w) xanthan gum, 0.02% (w/w) anti-foaming agent, 0.15% (w/w) citric acid and 0.01% (w/w) potassium sorbate. The pH of the compositions was 4. A composition without natamycin or procymidone was used as control. The treated strawberries were incubated in a closed box in the dark at 20° C. for 13 days.
During incubation, mould growth on the strawberries was assessed in a twofold manner: (i) the number of moulded strawberries per total of 10 strawberries was counted; and (ii) the antifungal activity (in %) of the individual and combined active ingredients was determined by calculating the reduction in mould growth observed on the strawberries treated with the antifungal composition in comparison to the mould growth on the strawberries treated with the control composition. The expected antifungal activity (E in %) of the combined antifungal composition comprising both active ingredients was calculated according to the Colby equation (Colby, 1967): […]
wherein X and Y are the observed antifungal activities (in %) of the individual active ingredients X and Y, respectively. If the observed antifungal activity (O in %) of the combination exceeds the expected antifungal activity (E in %) of the combination and the synergy factor O/E is thus >1.0, the combined application of the active ingredients leads to a synergistic antifungal effect.
The treated strawberries were assessed on mould growth after 4, 5 and 7 days of incubation according to the two methods described in Example 3.
The treated strawberries were incubated for 9 days and, as of day 5, assessed on mould growth daily. The antifungal activity (in %) of the individual and combined active ingredients was determined according to the method described in Example 3.
During incubation, the treated strawberries were assessed on mould growth according to the two methods described in Example 3.

Botrytis cinerea [2] = assay: Treatment of wounded apples inoculated with Botrytis cinerea (dip, mould growth); assay type: in vivo; conditions: 250 ppm natamycin, 20° C.
Description: Twelf fresh, organic apples were used per treatment. Each apple was wounded once using a cork borer according to the method described by de Lapeyre de Bellaire and Dubois (1987). Subsequently, each wound was inoculated with 10 μl of a Botrytis cinerea suspension containing 1×10^5 of spores/ml. […] In addition, the antifungal compositions comprised 3.1% (w/w) beeswax, 0.76% (w/w) glycerol, 0.66% (w/w) polyoxyethylene sorbitan monostearate (Tween 60), 0.03% (w/w) methylhydroxyethylcellulose (MHEC), 0.02% (w/w) xanthan gum, 0.02% (w/w) anti-foaming agent, 0.15% (w/w) citric acid and 0.01% (w/w) potassium sorbate. The pH of the compositions was 4. […] The treated apples were incubated in a closed box in the dark at 20° C.
During incubation, the treated apples were assessed on mould growth according to the two methods described in Example 8.

Botrytis cinerea [3] = assay: In vitro antifungal activity, 96-well microtiter plates; assay type: cell-based; conditions: 1.25 ppm natamycin, 1.5 ppm vinclozolin, 1.25 ppm procymidone, alone or natamycin + one of them, 25° C.
Description: The following compositions were tested: […] After incubation of the microtiter plates at 25° C., the in vitro antifungal activity (%) of the individual active ingredients was assessed by calculating the reduction in mould growth observed in the presence of the active ingredient in comparison to the mould growth observed in the absence of the active ingredient. The expected antifungal activity (E in %) of the active ingredient combination was calculated according to the Colby equation (Colby, 1967): […] wherein X and Y are the observed antifungal activities (in %) of the individual active ingredients X and Y, respectively.

[4] = 250 ppm natamycin, 250 ppm procymidone or both, day 4
[5] = 250 ppm natamycin, 250 ppm procymidone or both, day 5
[6] = 250 ppm natamycin, 250 ppm procymidone or both, day 6
[7] = 250 ppm natamycin, 250 ppm procymidone or both, day 7
[8] = 250 ppm natamycin, 250 ppm procymidone or both, day 8
[9] = 250 ppm natamycin, 250 ppm procymidone or both, day 9
[10] = 500 ppm natamycin, 1000 ppm procymidone or both, day 5
[11] = 500 ppm natamycin, 1000 ppm procymidone or both, day 7
[12] = 500 ppm natamycin, 2000 ppm procymidone or both, day 5
[13] = 500 ppm natamycin, 2000 ppm procymidone or both, day 6
[14] = 500 ppm natamycin, 2000 ppm procymidone or both, day 7
[15] = 500 ppm natamycin, 2000 ppm procymidone or both, day 12
[16] = 500 ppm procymidone or both, day 13

Compound: CC12CC1(C)C(=O)N(c1cc(Cl)cc(Cl)c1)C2=O (centres unmarked) [Procymidone, procymidone]
- Number of moulded strawberries/total number of 10 strawberries (Botrytis cinerea [1]; [4]): 10 and 10/10
- Observed antifungal activity O (%) (Botrytis cinerea [1]; [4]): 58%
- Number of moulded strawberries/total number of 10 strawberries (Botrytis cinerea [1]; [5]): 10 and 10/10
- Observed antifungal activity O (%) (Botrytis cinerea [1]; [5]): 41%
- Number of moulded strawberries/total number of 10 strawberries (Botrytis cinerea [1]; [6]): 10 and 10/10
- Observed antifungal activity O (%) (Botrytis cinerea [1]; [6]): 34%
- Number of moulded strawberries/total number of 10 strawberries (Botrytis cinerea [1]; [7]): 10 and 10/10
- Observed antifungal activity O (%) (Botrytis cinerea [1]; [7]): 31%
- Number of moulded strawberries/total number of 10 strawberries (Botrytis cinerea [1]; [8]): 10 and 10/10
- Observed antifungal activity O (%) (Botrytis cinerea [1]; [8]): 27%
- Number of moulded strawberries/total number of 10 strawberries (Botrytis cinerea [1]; [9]): 10 and 10/10
- Observed antifungal activity O (%) (Botrytis cinerea [1]; [9]): 13%
- Observed antifungal activity O (%) (Botrytis cinerea [1]; 250 ppm natamycin, 250 ppm procymidone or both, day 10): 10%
- Observed antifungal activity O (%) (Botrytis cinerea [1]; 250 ppm natamycin, 250 ppm procymidone or both, day 12): 5%
- Observed antifungal activity O (%) (Botrytis cinerea [1]; 250 ppm natamycin, 500 ppm procymidone or both, day 5): 39%
- Observed antifungal activity O (%) (Botrytis cinerea [1]; 250 ppm natamycin, 500 ppm procymidone or both, day 6): 26%
- Observed antifungal activity O (%) (Botrytis cinerea [1]; 250 ppm natamycin, 500 ppm procymidone or both, day 7): 20%
- Observed antifungal activity O (%) (Botrytis cinerea [1]; 250 ppm natamycin, 500 ppm procymidone or both, day 8): 20%
- Observed antifungal activity O (%) (Botrytis cinerea [1]; 250 ppm natamycin, 500 ppm procymidone or both, day 9): 17%
- Observed antifungal activity O (%) (Botrytis cinerea [1]; 500 ppm natamycin, 1000 ppm procymidone or both, day 4): 69%
- Number of moulded strawberries/total number of 10 strawberries (Botrytis cinerea [1]; [10]): 10 and 10/10
- Observed antifungal activity O (%) (Botrytis cinerea [1]; [10]): 59%
- Number of moulded strawberries/total number of 10 strawberries (Botrytis cinerea [1]; [11]): 10 and 10/10
- Observed antifungal activity O (%) (Botrytis cinerea [1]; [11]): 44%
- Number of moulded strawberries/total number of 10 strawberries (Botrytis cinerea [1]; [12]): 8 and 8/10
- Observed antifungal activity O (%) (Botrytis cinerea [1]; [12]): 63%
- Number of moulded strawberries/total number of 10 strawberries (Botrytis cinerea [1]; [13]): 9 and 9/10
- Observed antifungal activity O (%) (Botrytis cinerea [1]; [13]): 51%
- Number of moulded strawberries/total number of 10 strawberries (Botrytis cinerea [1]; [14]): 10 and 10/10
- Observed antifungal activity O (%) (Botrytis cinerea [1]; [14]): 38%
- Observed antifungal activity O (%) (Botrytis cinerea [1]; 500 ppm natamycin, 2000 ppm procymidone or both, day 8): 35%
- Number of moulded strawberries/total number of 10 strawberries (Botrytis cinerea [1]; 500 ppm natamycin, 2000 ppm procymidone or both, day 8-10): 10 and 10/10
- Observed antifungal activity O (%) (Botrytis cinerea [1]; 500 ppm natamycin, 2000 ppm procymidone or both, day 9): 23%
- Observed antifungal activity O (%) (Botrytis cinerea [1]; 500 ppm natamycin, 2000 ppm procymidone or both, day 10): 13%
- Number of moulded strawberries/total number of 10 strawberries (Botrytis cinerea [1]; [15]): 10 and 10/10
- Observed antifungal activity O (%) (Botrytis cinerea [1]; [15]): 2%
- Observed antifungal activity O (%) (Botrytis cinerea [1]; 500 ppm natamycin, 2000 ppm procymidone or both, day 13): 0%
- Number of moulded apples/total number of 12 apples (Botrytis cinerea [2]; 250 ppm procymidone or both, day 6): 7 and 7/12
- Number of moulded apples/total number of 12 apples (Botrytis cinerea [2]; 250 ppm procymidone or both, day 7-11): 8 and 8/12
- Number of moulded apples/total number of 12 apples (Botrytis cinerea [2]; 250 ppm procymidone or both, day 12-13): 12/12
- Observed antifungal activity O (%) (Botrytis cinerea [2]; 250 ppm procymidone or both, day 13): 65%
- Observed antifungal activity O (%) (Botrytis cinerea [2]; 250 ppm procymidone or both, day 14): 55%
- Number of moulded apples/total number of 12 apples (Botrytis cinerea [2]; 250 ppm procymidone or both, day 14-25): 12/12
- Observed antifungal activity O (%) (Botrytis cinerea [2]; 250 ppm procymidone or both, day 15): 50%
- Observed antifungal activity O (%) (Botrytis cinerea [2]; 250 ppm procymidone or both, day 17): 44%
- Observed antifungal activity O (%) (Botrytis cinerea [2]; 250 ppm procymidone or both, day 18): 37%
- Observed antifungal activity O (%) (Botrytis cinerea [2]; 250 ppm procymidone or both, day 20): 31%
- Observed antifungal activity O (%) (Botrytis cinerea [2]; 250 ppm procymidone or both, day 22): 26%
- Observed antifungal activity O (%) (Botrytis cinerea [2]; 250 ppm procymidone or both, day 25): 17%
- Number of moulded apples/total number of 12 apples (Botrytis cinerea [2]; 500 ppm procymidone or both, day 4): 8 and 8/12
- Number of moulded apples/total number of 12 apples (Botrytis cinerea [2]; 500 ppm procymidone or both, day 5-6): 8 and 8/12
- Number of moulded apples/total number of 12 apples (Botrytis cinerea [2]; 500 ppm procymidone or both, day 7-11): 8 and 8/12
- Number of moulded apples/total number of 12 apples (Botrytis cinerea [2]; 500 ppm procymidone or both, day 12): 10 and 10/12
- Number of moulded apples/total number of 12 apples (Botrytis cinerea [2]; [16]): 11 and 11/12
- Observed antifungal activity O (%) (Botrytis cinerea [2]; [16]): 75%
- Observed antifungal activity O (%) (Botrytis cinerea [2]; 500 ppm procymidone or both, day 14): 71%
- Number of moulded apples/total number of 12 apples (Botrytis cinerea [2]; 500 ppm procymidone or both, day 14-25): 12/12
- Observed antifungal activity O (%) (Botrytis cinerea [2]; 500 ppm procymidone or both, day 15): 67%
- Observed antifungal activity O (%) (Botrytis cinerea [2]; 500 ppm procymidone or both, day 17): 57%
- Observed antifungal activity O (%) (Botrytis cinerea [2]; 500 ppm procymidone or both, day 18): 51%
- Observed antifungal activity O (%) (Botrytis cinerea [2]; 500 ppm procymidone or both, day 20): 45%
- Observed antifungal activity O (%) (Botrytis cinerea [2]; 500 ppm procymidone or both, day 22): 38%
- Observed antifungal activity O (%) (Botrytis cinerea [2]; 500 ppm procymidone or both, day 25): 26%
- Observed antifungal activity O (%) (Botrytis cinerea [3]; day 3): 0%
- Observed antifungal activity O (%) (Botrytis cinerea [3]; day 6): 0%
